Data taken from patent US20250382344A1, “Soluble GLP1/GIP/NPY2 Receptor Triple Agonists” (Boehringer Ingelheim International GmH, priority 2024, published 2025).

Columns and labels:
[1] = Mouse PK after intravenous application; assay type: in vivo; settings: plasma, male NMRI mice, intravenous 30-60 nmol/kg, non-compartmental analysis
Procedure: Pharmacokinetic parameters of the peptides were determined after intravenous application to NMRI mice (Naval Medical Research Institute mice). Male NMRI mice were obtained from Janvier Laboratories (France) weighing 30 g to 40 g. Mice were housed in standard cages with a 12:12 hours light:dark cycle and standard food and water access ad libitum. Each test peptide was dissolved in 50 mM phosphate buffer (pH 7.4)/3.5% mannitol. Intravenous application of 30-60 nmol/kg was performed via the tail vein. Serial blood samples from conscious mice were collected from the saphenous vein in EDTA-containing vials at different time points up to 56 hours post-dosing. Subsequently, plasma was prepared by centrifugation for 5 minutes at approximately 5000 rpm and stored at −20° C. until quantification of the peptide plasma levels by liquid chromatography mass spectrometry (LC-MS). Individual plasma concentration-time profiles were analysed by a non-compartmental approach and the resulting pharmacokinetic parameters were calculated.

[2] = Solubility in 0.1 M phosphate buffer at pH 7; assay type: physicochemical; settings: 0.1 M phosphate buffer at pH 7, 10 mg/mL final peptide concentration, shaking 2 hours at room temperature, peptides as TFA-salts, measured sample pH 6.5-7.0; for solubility: read-out: Solubility
hNPY2R = biological target: T1, hNPY2R (Homo sapiens, UniProt P49146); assay: hNPY2R CreLuc assay in 0.5% and 100% plasma (HEK-293 CRE-luciferase reporter cells); assay type: cell-based; settings: 0.5% human plasma, HEK-293 reporter cells, read-out: hNPY2R 0.5% hP
T1 construct: expressed in transfected cells; host or cells: HEK-293 CRE-luciferase reporter cells
T1 sequence (P49146 1-381): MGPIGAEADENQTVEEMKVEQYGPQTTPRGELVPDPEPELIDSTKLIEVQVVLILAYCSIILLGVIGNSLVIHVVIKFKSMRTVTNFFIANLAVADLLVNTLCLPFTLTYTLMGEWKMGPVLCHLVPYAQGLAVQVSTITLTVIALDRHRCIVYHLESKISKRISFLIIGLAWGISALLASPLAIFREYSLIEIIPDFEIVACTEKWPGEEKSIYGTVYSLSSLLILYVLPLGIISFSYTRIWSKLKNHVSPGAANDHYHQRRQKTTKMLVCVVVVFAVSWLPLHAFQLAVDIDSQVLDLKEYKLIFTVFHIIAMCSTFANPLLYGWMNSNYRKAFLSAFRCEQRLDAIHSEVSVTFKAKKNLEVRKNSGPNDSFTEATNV

hGIPR = biological target: T2, hGIPR (Homo sapiens, UniProt P48546); assay: hGIPR CreLuc assay in 0.5% and 100% plasma (CHO CRE-luciferase reporter cells); assay type: cell-based; settings: 0.5% human plasma, read-out: hGIPR 0.5% hP
T2 construct: expressed in transfected cells; host or cells: CHO CRE-luciferase reporter cells
T2 sequence (P48546 22-466): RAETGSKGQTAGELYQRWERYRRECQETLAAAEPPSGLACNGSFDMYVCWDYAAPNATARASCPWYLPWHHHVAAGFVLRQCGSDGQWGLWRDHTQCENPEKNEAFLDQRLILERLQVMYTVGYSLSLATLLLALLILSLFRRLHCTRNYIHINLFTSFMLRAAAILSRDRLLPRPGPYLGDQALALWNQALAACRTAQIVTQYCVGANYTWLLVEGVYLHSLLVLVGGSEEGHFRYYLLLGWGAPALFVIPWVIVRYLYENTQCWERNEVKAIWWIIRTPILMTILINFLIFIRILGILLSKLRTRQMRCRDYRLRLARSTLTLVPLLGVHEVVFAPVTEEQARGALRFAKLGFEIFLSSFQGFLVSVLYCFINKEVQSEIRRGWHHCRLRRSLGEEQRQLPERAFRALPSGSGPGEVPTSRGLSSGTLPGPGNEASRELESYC

hGLP1R = biological target: T3, hGLP1R (Homo sapiens, UniProt P43220); assay: hGLP1R CreLuc assay in 0.5% and 100% plasma (HEK-293 CRE-luciferase reporter cells); assay type: cell-based; settings: 0.5% human plasma, HEK-293 reporter cells, read-out: hGLP1R 0.5% hP
T3 construct: expressed in transfected cells; host or cells: HEK-293 CRE-luciferase reporter cells
T3 sequence (P43220 24-463): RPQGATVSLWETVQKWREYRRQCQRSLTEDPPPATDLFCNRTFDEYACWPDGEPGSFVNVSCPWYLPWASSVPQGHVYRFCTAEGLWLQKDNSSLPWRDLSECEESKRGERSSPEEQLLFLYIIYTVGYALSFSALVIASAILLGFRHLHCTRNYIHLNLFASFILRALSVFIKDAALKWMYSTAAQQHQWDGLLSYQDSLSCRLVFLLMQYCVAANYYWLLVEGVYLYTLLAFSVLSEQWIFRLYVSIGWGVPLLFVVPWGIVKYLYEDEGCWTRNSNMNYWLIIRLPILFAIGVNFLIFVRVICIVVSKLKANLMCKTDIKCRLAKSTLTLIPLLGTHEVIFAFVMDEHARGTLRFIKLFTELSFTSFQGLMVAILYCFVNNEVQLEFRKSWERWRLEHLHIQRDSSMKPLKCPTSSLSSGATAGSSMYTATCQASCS

Row | SMILES | MRT [1] [h] | solubility [2] [µg/mL] | EC50 (hNPY2R) [nM] | solubility at 2 h [2] [µg/mL] | EC50 (hGIPR) [nM] | EC50 (hGLP1R) [nM]
1 | CC[C@H](C)[C@H](NC(=O)[C@H](CC(C)C)NC(=O)[C@H](Cc1c[nH]cn1)NC(=O)[C@H](CCCNC(=N)N)NC(=O)[C@@H](NC(=O)[C@H](Cc1ccccc1)NC(=O)[C@H](C)NC(=O)C(C)(C)NC(=O)[C@H](CCC(N)=O)NC(=O)[C@H](C)NC(=O)[C@H](CCC(N)=O)NC(=O)[C@H](CCCCN)NC(=O)[C@H](CC(=O)O)NC(=O)[C@H](CC(C)C)NC(=O)C(C)(C)NC(=O)[C@@H](NC(=O)[C@H](CO)NC(=O)[C@H](Cc1ccc(O)cc1)NC(=O)[C@H](CC(=O)O)NC(=O)[C@H](CO)NC(=O)[C@@H](NC(=O)[C@H](Cc1ccccc1)NC(=O)[C@@H](NC(=O)CNC(=O)[C@H](CCC(=O)O)NC(=O)C(C)(C)NC(=O)[C@@H](N)Cc1ccc(O)cc1)[C@@H](C)O)[C@@H](C)O)[C@@H](C)CC)C(C)C)C(=O)N[C@@H](CC(N)=O)C(=O)N[C@@H](CCCCNC(=O)[C@@H](N)CCCCNC(=O)CC[C@H](NC(=O)[C@H](CCC(=O)O)NC(=O)CC[C@H](NC(=O)CC[C@H](NC(=O)CC[C@H](NC(=O)CC[C@H](NC(=O)CCCCCCCCCCCCCCCCCCC(=O)O)C(=O)O)C(=O)O)C(=O)O)C(=O)O)C(=O)O)C(=O)NC(C)(C)C(=O)N[C@H](C(=O)N[C@@H](CCCNC(=N)N)C(=O)N[C@@H](CCC(N)=O)C(=O)N[C@@H](CCCNC(=N)N)C(=O)N[C@@H](Cc1ccc(O)cc1)C(N)=O)[C@@H](C)O [Compound 74, Y-Aib-E-G-T-F-T-S-D-Y-S-I-Aib-L-D-K-Q-A-Q-Aib-A-F-V-R-H-L-I-N-K(1,3)-Aib-T-R-Q-R-Y-NH2.C20DA-gGlu-gGlu-gGlu-gGlu-gGlu-gGlu-eLys(1,2)] | 16.4 | 8600 | – | – | – | –
2 | CC[C@H](C)[C@H](NC(=O)[C@H](CC(C)C)NC(=O)[C@H](Cc1c[nH]cn1)NC(=O)[C@H](CCCNC(=N)N)NC(=O)[C@@H](NC(=O)[C@H](Cc1ccccc1)NC(=O)[C@H](CCC(=O)O)NC(=O)C(C)(C)NC(=O)[C@H](CCC(N)=O)NC(=O)[C@H](C)NC(=O)[C@H](CCC(N)=O)NC(=O)[C@H](CCCCN)NC(=O)[C@H](CCC(=O)O)NC(=O)[C@H](CC(C)C)NC(=O)C(C)(C)NC(=O)[C@@H](NC(=O)[C@H](CO)NC(=O)[C@H](Cc1ccc(O)cc1)NC(=O)[C@H](CC(=O)O)NC(=O)[C@H](CO)NC(=O)[C@@H](NC(=O)[C@H](Cc1ccccc1)NC(=O)[C@@H](NC(=O)CNC(=O)[C@H](CCC(=O)O)NC(=O)C(C)(C)NC(=O)[C@@H](N)Cc1ccc(O)cc1)[C@@H](C)O)[C@@H](C)O)[C@@H](C)CC)C(C)C)C(=O)N[C@@H](CC(N)=O)C(=O)N[C@@H](CCCCNC(=O)CC[C@H](NC(=O)CC[C@H](NC(=O)CC[C@H](NC(=O)CC[C@H](NC(=O)CCCCCCCCCCCCCCCCC(=O)O)C(=O)O)C(=O)O)C(=O)O)C(=O)O)C(=O)NC(C)(C)C(=O)N[C@H](C(=O)N[C@@H](CCCNC(=N)N)C(=O)N[C@@H](CCC(N)=O)C(=O)N[C@@H](CCCNC(=N)N)C(=O)N[C@@H](Cc1ccc(O)cc1)C(N)=O)[C@@H](C)O [Compound 79, Y-Aib-E-G-T-F-T-S-D-Y-S-I-Aib-L-E-K-Q-A-Q-Aib-E-F-V-R-H-L-I-N-K(1,3)-Aib-T-R-Q-R-Y-NH2.C18DA-gGlu-gGlu-gGlu-gGlu(1,2)] | 7 | 4200 | – | – | – | –
3 | CC[C@H](C)[C@H](NC(=O)[C@H](CC(C)C)NC(=O)[C@H](Cc1c[nH]cn1)NC(=O)[C@H](CCCNC(=N)N)NC(=O)[C@@H](NC(=O)[C@H](Cc1ccccc1)NC(=O)[C@H](C)NC(=O)C(C)(C)NC(=O)[C@H](CCC(N)=O)NC(=O)[C@H](C)NC(=O)[C@H](CCC(N)=O)NC(=O)[C@H](CCCCN)NC(=O)[C@H](CCC(=O)O)NC(=O)[C@H](CC(C)C)NC(=O)C(C)(C)NC(=O)[C@@H](NC(=O)[C@H](CO)NC(=O)[C@H](Cc1ccc(O)cc1)NC(=O)[C@H](CC(=O)O)NC(=O)[C@H](CO)NC(=O)[C@@H](NC(=O)[C@H](Cc1ccccc1)NC(=O)[C@@H](NC(=O)CNC(=O)[C@H](CCC(=O)O)NC(=O)C(C)(C)NC(=O)[C@@H](N)Cc1ccc(O)cc1)[C@@H](C)O)[C@@H](C)O)[C@@H](C)CC)C(C)C)C(=O)N[C@@H](CC(N)=O)C(=O)N[C@@H](CCCCNC(=O)COCCOCCNC(=O)CC[C@H](NC(=O)CC[C@H](NC(=O)CC[C@H](NC(=O)CC[C@H](NC(=O)CC[C@H](NC(=O)CC[C@H](NC(=O)CCCCCCCCCCCCCCCCC(=O)O)C(=O)O)C(=O)O)C(=O)O)C(=O)O)C(=O)O)C(=O)O)C(=O)NC(C)(C)C(=O)N[C@H](C(=O)N[C@@H](CCCNC(=N)N)C(=O)N[C@@H](CCC(N)=O)C(=O)N[C@@H](CCCNC(=N)N)C(=O)N[C@@H](Cc1ccc(O)cc1)C(N)=O)[C@@H](C)O [Compound 47, Y-Aib-E-G-T-F-T-S-D-Y-S-I-Aib-L-E-K-Q-A-Q-Aib-A-F-V-R-H-L-I-N-K(1,3)-Aib-T-R-Q-R-Y-NH2.C18DA-gGlu-gGlu-gGlu-gGlu-gGlu-gGlu-OEG(1,2)] | – | – | 19.9 | 10000 | 0.3 | 0.8
4 | CC[C@H](C)[C@H](NC(=O)[C@H](CC(C)C)NC(=O)[C@H](Cc1c[nH]cn1)NC(=O)[C@H](CCCNC(=N)N)NC(=O)[C@@H](NC(=O)[C@H](Cc1ccccc1)NC(=O)[C@H](C)NC(=O)C(C)(C)NC(=O)[C@H](CCC(N)=O)NC(=O)[C@H](C)NC(=O)[C@H](CCC(N)=O)NC(=O)[C@H](CCCCN)NC(=O)[C@H](CCC(=O)O)NC(=O)[C@H](CC(C)C)NC(=O)C(C)(C)NC(=O)[C@@H](NC(=O)[C@H](CO)NC(=O)[C@H](Cc1ccc(O)cc1)NC(=O)[C@H](CC(=O)O)NC(=O)[C@H](CO)NC(=O)[C@@H](NC(=O)[C@H](Cc1ccccc1)NC(=O)[C@@H](NC(=O)CNC(=O)[C@H](CCC(=O)O)NC(=O)C(C)(C)NC(=O)[C@@H](N)Cc1ccc(O)cc1)[C@@H](C)O)[C@@H](C)O)[C@@H](C)CC)C(C)C)C(=O)N[C@@H](CC(N)=O)C(=O)N[C@@H](CCCCNC(=O)CCCCCNC(=O)CC[C@H](NC(=O)CC[C@H](NC(=O)CC[C@H](NC(=O)CC[C@H](NC(=O)CC[C@H](NC(=O)CCCCCCCCCCCCCCCCC(=O)O)C(=O)O)C(=O)O)C(=O)O)C(=O)O)C(=O)O)C(=O)N[C@@H](CC(C)C)C(=O)N[C@H](C(=O)N[C@@H](CCCNC(=N)N)C(=O)N[C@@H](CCC(N)=O)C(=O)N[C@@H](CCCNC(=N)N)C(=O)N[C@@H](Cc1ccc(O)cc1)C(N)=O)[C@@H](C)O [Compound 69, Y-Aib-E-G-T-F-T-S-D-Y-S-I-Aib-L-E-K-Q-A-Q-Aib-A-F-V-R-H-L-I-N-K(1,3)-L-T-R-Q-R-Y-NH2.C18DA-gGlu-gGlu-gGlu-gGlu-gGlu-AHX(1,2)] | 4.6 | 4800 | – | – | – | –
